The text below walks through data of ChEMBL document CHEMBL1177804, “Synthesis and preliminary evaluation of neuroprotection of celastrol analogues in PC12 cells” (Bioorg Med Chem Lett, 2010).

A word on the EC50: it is the concentration needed to bring the measured effect to its halfway point. Low values mean an effect from little substance, high ones a need for much substance. Usually IC50 stands for the concentration needed to halve the response being measured.

For assay [1], the system named is PC-12. In words: Cytoprotective activity against t-BPH-induced cell damage in rat PC12 cells assessed as cell viability at 1.6 uM. The format is functional, cell-based.
A short description of assay [2]: Antitumor activity against mouse SW1 cells. It counts as functional, cell-based.
For assay [3], the system named is PC-12. Nature of the assay: Neuroprotective activity in t-BHP-induced damage in rat PC12 cells assessed as induction of Hsp70 expression by Western blotting. The format is functional, cell-based. In general terms: Immunoblotting shows a protein as a band on a membrane.
Assay [4] deals with PC-12. In words: Cytoprotective activity in rat PC12 cells assessed as protection against t-BHP-induced cell damage at 0.4 uM. It counts as functional.
The species named for a further assay is Rattus norvegicus. Nature of the assay: Cytoprotective activity against H2O2-induced damage in rat RINm cells. The format is functional, cell-based.
The test system of assay [5] is PC-12. Nature of the assay: Cytoprotective activity against t-BPH-induced cell damage in rat PC12 cells assessed as cell viability. The format is functional, cell-based.
The subject of assay [6] is PC-12. In words: Cytoprotective activity against t-BPH-induced cell damage in rat PC12 cells assessed as cell viability at 0.8 uM. The format is functional, cell-based.
In assay [7] the test system is PC-12. Nature of the assay: Cytoprotective activity against t-BPH-induced cell damage in rat PC12 cells assessed as cell viability at 0.1 uM. The format is functional. Particulars: read-out: Activity.
The test system of the next assay is LNCaP. In words: Antitumor activity against human LNCAP cells. The format is functional, cell-based.

Structures are written as SMILES. Activity calls are given as the source filed them. The rule behind the calls is not given here. Bounds are passed on as bounds.

On to `CC1=C(O)C(=O)C=C2C1=CC=C1[C@@]2(C)CC[C@@]2(C)[C@@H]3C[C@](C)(C(=O)N4CCN(C)CC4)CC[C@]3(C)CC[C@]12C`, for which the Activity entry in the assay on PC-12 [1] is “Dose-dependent effect”. In the case of `CC1=C(O)C(=O)C=C2C1=CC=C1[C@@]2(C)CC[C@@]2(C)[C@@H]3C[C@](C)(C(=O)OCc4ccccc4)CC[C@]3(C)CC[C@]12C`, in assay [2], the concentration giving a half-maximal response (EC50) came to 0.3 µM. `CC1=C(OC(=O)c2nc(C)c(C)nc2C)C(=O)C=C2C1=CC=C1[C@@]2(C)CC[C@@]2(C)[C@@H]3C[C@](C)(C(=O)O)CC[C@]3(C)CC[C@]12C`: the Activity entry is “Dose-dependent effect” in the assay on PC-12 [3] and 76% in the assay with PC-12 [4]. With `CC1=C(O)/C(=N/O)C=C2C1=CC=C1[C@@]2(C)CC[C@@]2(C)[C@@H]3C[C@](C)(C(=O)O)CC[C@]3(C)CC[C@]12C`, the outcome with PC-12 [1] was Active. Turning to `COC(=O)[C@]1(C)CC[C@]2(C)CC[C@]3(C)C4=CC=C5C(=CC(=O)C(O)=C5C)[C@]4(C)CC[C@@]3(C)[C@@H]2C1` [PRISTIMERIN], the EC50 in assay [2] is < 0.1 µM. On to `CC1=C(OC(=O)CCCCC2CCSS2)C(=O)C=C2C1=CC=C1[C@@]2(C)CC[C@@]2(C)[C@@H]3C[C@](C)(C(=O)O)CC[C@]3(C)CC[C@]12C` (some centres undefined), for which the result in the assay listed under Rattus norvegicus was Active. Further, the result in the assay on PC-12 [4] was inactive. As to `CC1=C(O)C(=O)C=C2C1=CC=C1[C@@]2(C)CC[C@@]2(C)[C@@H]3C[C@](C)(C(=O)O)CC[C@]3(C)CC[C@]12C` [CELASTROL], the values for the IC50 in the assay with PC-12 [5] and in the assay with LNCaP were 3.15 µM and 2.5 µM, respectively. Further, the result in the assay on PC-12 [6] was inactive. Besides, the viability at 0.1 µM in the assay with PC-12 [7] is 65%. Besides, in the assay on PC-12 [1], the result was Active. Regarding `CCCOC(=O)[C@]1(C)CC[C@]2(C)CC[C@]3(C)C4=CC=C5C(=CC(=O)C(O)=C5C)[C@]4(C)CC[C@@]3(C)[C@@H]2C1`, in the assay on PC-12 [1], the result was Active.
